According to ChEMBL document CHEMBL4699511, “Cedrol, a Sesquiterpene Alcohol, Enhances the Anticancer Efficacy of Temozolomide in Attenuating Drug Resistance via Regulation of the DNA Damage Response and MGMT Expression” (J Nat Prod, 2020):
Each block holds one compound with its values, some of them ahead of it. The source made the active and inactive calls. No cut-off for these calls is given here.

Columns and labels:
[1] = tested on: RG2; test: Induction of cell cycle arrest in rat RG2 cells assessed as accumulation at G0/G1 phase at 206 uM after 24 hrs by propidium iodide staining based flow cytometric analysis (reference value: 57.81 +/- 1.9%); format: functional
[2] = tested on: DBTRG-05MG; test: Induction of apoptosis in human DBTRG-05MG cells assessed as phosphorylated PARP expression at 206 uM after 48 hrs by Western blot analysis (reference value: 1); format: functional
[3] = tested on: DBTRG-05MG; test: Induction of DNA damage in human DBTRG-05MG cells assessed as ATM phosphorylation at ser1981 residues at 206 uM after 48 hrs by Western blot analysis (reference value: 1); format: functional
[4] = tested on: DBTRG-05MG; test: Induction of apoptosis in human DBTRG-05MG cells assessed as cleaved caspace-3 expression at 206 uM after 48 hrs by Western blot analysis (reference value: 1); format: functional
[5] = tested on: RG2; test: Induction of cell cycle arrest in rat RG2 cells assessed as CDK2 expression at 206 uM after 48 hrs by Western blot analysis (reference value: 1); format: functional
[6] = Effect on p38 expression in human DBTRG-05MG cells at 206 uM after 48 hrs by Western blot analysis (reference value: 1); format: functional
[7] = tested on: DBTRG-05MG; test: Induction of cell cycle arrest in human DBTRG-05MG cells assessed as accumulation at G2/M phase at 206 uM after 12 hrs by propidium iodide staining based flow cytometric analysis (reference value: 30.08 +/- 0.1%); format: functional
[8] = tested on: DBTRG-05MG; test: Induction of cell cycle arrest in human DBTRG-05MG cells assessed as CyclinB1 expression at 206 uM after 48 hrs by Western blot analysis (reference value: 1); format: functional
[9] = tested on: RG2; test: Synergistic cytotoxicity against rat RG2 cells assessed as combination index at 89.9 uM after 48 hrs in presence of 412.1 uM TMZ by MTT assay; format: functional
[10] = Effect on AKT expression in rat RG2 cells at 112.4uM after 48 hrs in presence of TMZ by Western blot analysis (reference value: 1); format: functional
[11] = target: MAP kinase p38 (Homo sapiens) (UniProt O15264+Q15759+Q16539+P53778); test: Inhibition of p38 phosphorylation at Tyr182 residues in human DBTRG-05MG cells at 112.4uM after 48 hrs by Western blot analysis (reference value: 1); format: cell-based
[12] = tested on: RG2; test: Inhibition of AKT phosphorylation at S473 residues in rat RG2 cells at 112.4uM after 48 hrs in presence of TMZ by Western blot analysis; format: cell-based
[13] = Effect of MGMT expression in rat RG2 cells at 112.4 uM after 48 hrs by Western blot analysis (reference value: 1); format: functional
[14] = Synergistic cytotoxicity against rat CTX TNA2 cells assessed as synergistic effect index at 134.9 uM after 48 hrs in presence of 206 uM TMZ by MTT assay; format: cell-based; conditions: ctx tna2, 48 h
[15] = tested on: RG2; test: Induction of cell cycle arrest in rat RG2 cells assessed as accumulation at S phase at 112.4 uM after 24 hrs in presence of TMZ by propidium iodide staining based flow cytometric analysis (reference value: 20.15 +/- 2.44%); format: functional
[16] = tested on: RG2; test: Synergistic cytotoxicity against rat RG2 cells assessed as synergistic effect index at 89.9 uM after 48 hrs in presence of 515.1 uM TMZ by MTT assay; format: functional
[17] = tested on: DBTRG-05MG; test: Potentiation of TMZ-induced antitumor activity against human DBTRG-05MG cells xenografted in BALB/c nude mouse assessed as reduction in MGMT expression at 75 mg/kg, sc co-treated with TMZ for 18 days by fluorescent immunocytochemistry method; format: functional, organism-based; conditions: time 18.0 day
[18] = tested on: DBTRG-05MG; test: Induction of DNA damage in human DBTRG-05MG cells assessed as ATM phosphorylation at ser1981 residues at 112.4 uM after 48 hrs in presence of TMZ by Western blot analysis (reference value: 1); format: functional
[19] = tested on: DBTRG-05MG; test: Induction of DNA damage in human DBTRG-05MG cells assessed as ATM phosphorylation at ser1981 residues at 112.4 uM after 48 hrs by Western blot analysis (reference value: 1); format: functional
[20] = tested on: DBTRG-05MG; test: Induction of cell cycle arrest in human DBTRG-05MG cells assessed as accumulation at G2/M phase at 112.4 uM after 12 hrs in presence of TMZ by propidium iodide staining based flow cytometric analysis (reference value: 30.08 +/- 0.1%); format: functional
[21] = Synergistic cytotoxicity against rat CTX TNA2 cells assessed as combination index at 89.9 uM after 48 hrs in presence of 206 uM TMZ by MTT assay; format: cell-based; conditions: ctx tna2, 48 h
[22] = Inhibition of TMZ-induced drug resistance in human DBTRG-05MG cells assessed as MGMT expression at 112.4 uM after 48 hrs by Western blot analysis (reference value: 1.3); format: functional
[23] = tested on: DBTRG-05MG; test: Synergistic cytotoxicity against human DBTRG-05MG cells assessed as combination index at 112.4 uM after 48 hrs in presence of 412.1 uM TMZ by MTT assay; format: functional
[24] = tested on: DBTRG-05MG; test: Induction of cell cycle arrest in human DBTRG-05MG cells assessed as accumulation at G0/G1 phase at 112.4 uM after 24 hrs by propidium iodide staining based flow cytometric analysis (reference value: 47.16 +/- 1.55%); format: functional
[25] = tested on: RG2; test: Synergistic cytotoxicity against rat RG2 cells assessed as synergistic effect index at 134.9 uM after 48 hrs in presence of 515.1 uM TMZ by MTT assay; format: functional
[26] = tested on: RG2; test: Induction of cell cycle arrest in rat RG2 cells assessed as accumulation at G0/G1 phase at 112.4 uM after 24 hrs in presence of TMZ by propidium iodide staining based flow cytometric analysis (reference value: 57.81 +/- 1.9%); format: functional
[27] = tested on: DBTRG-05MG; test: Synergistic cytotoxicity against human DBTRG-05MG cells assessed as combination index at 134.9 uM after 48 hrs in presence of 309 uM TMZ by MTT assay; format: functional
[28] = tested on: RG2; test: Induction of DNA damage in rat RG2 cells at 112.4 uM after 48 hrs in presence of TMZ by p.H2A.X staining based fluorescent immunocytochemistry method; format: functional, cell-based
[29] = tested on: RG2; test: Synergistic cytotoxicity against rat RG2 cells assessed as synergistic effect index at 89.9 uM after 48 hrs in presence of 412.1 uM TMZ by MTT assay; format: functional
[30] = tested on: DBTRG-05MG; test: Induction of cell cycle arrest in human DBTRG-05MG cells assessed as CDK2 expression at 112.4uM after 48 hrs by Western blot analysis (reference value: 1); format: functional
[31] = tested on: RG2; test: Induction of apoptosis in rat RG2 cells assessed as cleaved caspace-9 expression at 112.4 uM after 48 hrs by Western blot analysis (reference value: 1); format: functional
[32] = tested on: RG2; test: Induction of cell cycle arrest in rat RG2 cells assessed as CDK2 expression at 112.4uM after 48 hrs by Western blot analysis (reference value: 1); format: functional
[33] = Synergistic cytotoxicity against rat CTX TNA2 cells assessed as synergistic effect index at 112.4 uM after 48 hrs in presence of 206 uM TMZ by MTT assay; format: cell-based; conditions: ctx tna2, 48 h

Compound: Cn1nnc2c(C(N)=O)ncn2c1=O [TEMOZOLOMIDE]
- Activity [1]: 52.7%
- fold change (FC) [2]: 0.4
- fold change (FC) [3]: 2.8
- fold change (FC) [4]: 3.3
- fold change (FC) [5]: 0.9
- fold change (FC) [6]: 0.9
- Activity [7]: 35.43%
- fold change (FC) [8]: 1.4

- fold change (FC) [11]: 1
Compound: C[C@@H]1CC[C@H]2C(C)(C)[C@H]3C[C@@]12CC[C@@]3(C)O [CEDROL]
- CI [9]: 1.34
- fold change (FC) [10]: 0.4
- fold change (FC) [12]: 0.5
- fold change (FC) [13]: 0.7
- Activity_index [14]: 0.43
- Activity [15]: 11.96%
- Activity_index [16]: 0.69
- Activity [17]: Active
- fold change (FC) [18]: 2.9
- fold change (FC) [19]: 1.8
- Activity [20]: 33.68%
- CI [21]: 1.13
- fold change (FC) [22]: 0.8
- CI [23]: 0.62
- Activity [24]: 57.59%
- Activity_index [25]: 0.89
- Activity [26]: 61.35%
- CI [27]: 0.61
- Activity [28]: Active
- Activity_index [29]: 0.66
- fold change (FC) [30]: 0.7
- fold change (FC) [31]: 1.3
- fold change (FC) [32]: 0.7
- Activity_index [33]: 0.4
